Measured values published in patent publication US10130676B2, “Therapeutic peptides for cerebrovascular diseases” (Prime Bio-Drug Development Limited, priority 2015, dated 2018).
Ends that are not written are not given here.

Columns and labels:
[1] = In vivo distribution of Cy5.5-conjugated peptides after i.v. injection (IVIS optical imaging); set-up: species or system C57B/L6 mice; settings: for fluorescent intensity detected in the brain: 15 and 30 minutes after injection (FIG. 12); for fluorescent intensity detected in the spinal cord: 30 and 60 minutes after injection (FIG. 13)
Source text: The C57B/L6 mice (6˜8 week-old, female) were purchased from National Laboratory Animal Center, Taiwan. For optical imaging, animals were anesthetized by 2% isoflurane gas mixed with oxygen and intravenous injection (i.v.) of Cy5.5-conjugated peptide 1 or Cy5.5-conjugated peptide 5 (35 nmole/per mouse). After administration the mice were placed prone or supine in a dark box and a photographic image was first acquired at low light (exposure time: 5 seconds). At indicated time points after administration of probes, fluorescent signals were obtained using a CCD camera thermoelectrically cooled to −70° C. (Xenogen—IVIS® Spectrum Imaging System, Xenogen Technology). The photon integration period was 1-2 sec.

[2] = Circular dichroism (CD) of the peptide in PBS; assay type: physicochemical; settings: 50 μM in PBS
Method: (§1) Peptide-5 was dissolved in series of solution with different pH value and stood for 3 days. Adequate amount of each resulting solution was analyzed by HPLC (Agilent 1100 series) using a Nucleodur Pyramid C18 column (250 mm×4.6 mm, 5 μm) and gradient elution (0 min: 0.1% TFA in H2O; 10 min: 0.1% TFA in MeOH; 15 min: 0.1% TFA in MeOH) with 0.2 mL/min flow. The signals were monitored by UV detector at 220 nm wavelength. The sample collected in the stability test was also analyzed by MALDI-TOF Mass (Bruker Daltonics, Autoflex III) with 2,5-dihydroxybenzoic acid (DHB) as matrix. Furthermore, the portion respond to the signal at 7.8 min were collected and subject to MALDI-MS analysis. Peptide-5 was also prepared 50 μM in PBS and recorded from circular dichroism (Jasco, J-810).

[3] = test system: PC12 cells; test: PC12 cell survival upon exposure to H2O2 (MTT); assay type: cell-based, rat; settings: 10 ug/ml for each peptide; 200 μM H2O2, 24 h
Method: To examine cell survival upon exposure to H2O2, PC12 cells were grown to confluence in 96 well plate and the medium was changed to serum-free medium containing 200 μM H2O2 (final volume 100 μl) for 24 h. […] After 24 h incubation, 100 μL MTT (final concentration 0.5 mg/ml) was added for additional 4 h incubation, and the cell survival was subsequently assessed by absorbance at 540 nm under a Fluostar microplate reader (BMG, Germany).
(§2) Differences were considered significant at P<0.05.

[4] = test system: PC12 cells; test: PC12 cell survival upon exposure to L-glutamic acid (MTT); assay type: cell-based, rat; settings: 10 ug/ml for each peptide; 1 mM L-glutamic acid
Method: PC12 cells were obtained from the Chinese Academy of Medical Sciences, Beijing, China. To examine cell survival upon exposure to L-glutamic acid, PC12 cells were grown to confluence in 96 well plate in serum-free RPMI-1640. […] After 15-min incubation, medium was changed to serum-free RPMI-1640. After 24 h incubation, 100 μL MTT (final concentration 0.5 mg/ml) was added for additional 4 h incubation, and the cell survival was subsequently assessed by absorbance at 540 nm under a Fluostar microplate reader (BMG Germany).
as §2

[5] = test system: PC12 cells; test: PC12 cell survival under hypoglycemic, hypoxic or hypoglycemic-hypoxic conditions (MTT); settings: for protective effect on PC12 from cell death under hypoglycemic and hypoxic conditions: 10 ug/ml for each peptide, 24 h; for protective effect against cell death induced by hypoxia / protective effects against cytotoxicity induced by hypoxia or by (hypoglycemia+hypoglycemia): peptide used individually; for protective effects against cytotoxicity induced by hypoxia or by (hypoglycemia+hypoglycemia): conditions as printed
Method: PC12 cells were propagated and cultured as described above. For hypoglycemic condition, 125 μM Cobaltous Chloride (CoCl2, Sigma, USA) was added into the culture media when PC12 cells were in monolayer for further 24 h incubation as described. For induction of hypoglycemia, culture media was changed to glucose-free Eagle's medium when PC12 grew to monolayer for additional 24 h incubation. For hypoglycemic and hypoxic conditions, PC12 cells were cultured in glucose-free Eagle's media with addition of 125 μM CoCl2. After 24 h, cells were harvested and subject to MTT assay.
Data were expressed as mean±standard error (SE) and multiple comparisons were evaluated by the analysis of variance and Neuman-Keuls test. Differences were considered significant at P<0.05. Neurological deficit data were evaluated by the nonparametric Mann-Whitney test.

[6] = Stability test in solutions of different pH value (HPLC, MALDI-TOF); assay type: physicochemical; settings: pH 2.0 to 8.5, 3 days, HPLC UV 220 nm
Method: as §1

Substance | fluorescent intensity detected in the brain [1] | fluorescent intensity detected in the spinal cord [1] | stability by CD (circular dichroism) [2] | protective effect on H2O2-treated neural cells (cell survival) [3] | protective effect on L-glutamic-acid-treated PC12 cells [4] | protective effect on PC12 from cell death under hypoglycemic and hypoxic conditions [5] | protective effect against cell death induced by hypoxia [5] | protective effects against cytotoxicity induced by hypoxia or by (hypoglycemia+hypoglycemia) [5] | stability in solution with various pH value [6]
DEAQETAVSSHEQD-OH [Peptide 5] | high fluorescent intensity | high fluorescent intensity | extremely stable | a degree of protective effect | a degree of protective effect | had the protective effect as well | some protective effect | no protective effects | stable, even in a very acidic environment
DEAQETAVSSH-OH [Peptide 1] | high fluorescent intensity | high fluorescent intensity | – | a degree of protective effect | a degree of protective effect | had the protective effect as well | some protective effect | no protective effects | –
